Assays:
Akt = Akt activation assay (Phospho-AKT (Ser473) antibody staining) in U2OS GFP-FoxO3a H212R reporter cells; format: cell-based; settings: Homo sapiens, 0.5 h, serum starved overnight, 30 minutes compound treatment, total cellular intensity of Phospho-Akt (Ser473) antibody staining, AC50 = concentration that results in 50% activation or inhibition
Method: Phosphorylation of Akt on S473 and FoxO3a nuclear to cytoplasmic translocation were used as readouts of PI3K/Akt/mTOR pathway activation downstream of growth factor signaling.
Reporter cell line. U2OS GFP-FoxO3a H212R reporter cell line was established by transducing U2OS cells with the retroviral plasmid pLEGFP-C1 containing FoxO3a H212R transgene and selecting for G418 resistant clones.
Reporter assay. U2OS GFP-FoxO3a H212R cells were plated in 384-well plates at 4000 cells per well in 30 microliters of McCoy's 5A medium containing 10% FBS. On day 1 the cells were washed with serum free medium and serum starved overnight. On day 2 the cells were treated with different doses of the compounds for 30 minutes, fixed with 4% Paraformaldehyde for 1 hour and stained with Phospho-AKT (Ser473) antibody (Cell Signaling Technology, catalog #4060) overnight at 4° C. After nuclei staining with Hoechst 33342 (Life Technologies, catalog # H3570) the plates were imaged with InCell 2000 (GE Healthcare Bio-Sciences). FoxO3a inhibition activity is calculated as the ratio of nuclear to cytosolic GFP intensity in percent. Akt activation is measured as the total cellular intensity of Phospho-Akt antibody staining in percent. DMSO control is set as 0% activity.

FoxO3a = FoxO3a inhibition assay (GFP-FoxO3a nuclear to cytoplasmic translocation) in U2OS GFP-FoxO3a H212R reporter cells; format: cell-based; settings: Homo sapiens, 0.5 h, serum starved overnight, 30 minutes compound treatment, ratio of nuclear to cytosolic GFP intensity, AC50 = concentration that results in 50% activation or inhibition, read-out: FoxO AC50
In short: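 Serum-starved (overnight) cells treated with compounds at various doses for 30 min, then fixed in 4% paraformaldehyde and stained overnight at 4 °C for pAkt S473 with Hoechst nuclear counterstain; high-content imaging. FoxO3a readout: nuclear/cytosolic GFP ratio (%); Akt readout: total cellular pAkt intensity (%); DMSO = 0% activity.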

## Cc1nc(C(N)=O)nn1-c1ccc(C(C)(C)c2ccc(-c3ccc(CN4CCOCC4)cc3)cc2)cc1 [Example 13-12]
Akt
  AC50: 0.261 µM
FoxO3a
  AC50: 0.064 µM

## Cc1cc(C(N)=O)nn1-c1ccc(Cc2ccc(-c3cccnc3)cc2)cc1 [Example 3-10, 5-methyl-1-(4-(4-(pyridin-3-yl)benzyl)phenyl)-1H-pyrazole-3-carboxamide]
Akt
  AC50: 0.497 µM
FoxO3a
  AC50: 0.11 µM

## Cc1nc(C(N)=O)nn1-c1ccc(Cc2ccc(-c3ccc(CN4CCCC(F)(F)C4)cc3)cc2)cc1 [Example 38-9]
Akt
  AC50: 0.011 µM
FoxO3a
  AC50: 0.013 µM

## Cc1nc(C(N)=O)nn1-c1ccc(Cc2ccc(-c3ccc(C(C)(C)O)cn3)cc2)cc1 [Example 21, 1-(4-(4-(5-(2-hydroxypropan-2-yl)pyridin-2-yl)benzyl)phenyl)-5-methyl-1H-1,2,4-triazole-3-carboxamide]
Akt
  AC50: 0.723 µM
FoxO3a
  AC50: 0.155 µM

## Cc1nc(C(N)=O)nn1-c1ccc(C(C)(C)c2ccc(-c3ccc(C(N)C(F)(F)F)cc3)cc2)cc1 (stereo not shown) [Example 14, 1-(4-(2-(4′-(1-amino-2,2,2-trifluoroethyl)-[1,1′-biphenyl]-4-yl)propan-2-yl)phenyl)-5-methyl-1H-1,2,4-triazole-3-carboxamide]
Akt
  AC50: 0.18 µM
FoxO3a
  AC50: 0.113 µM

## Cc1nc(C(N)=O)nn1-c1ccc(Cc2ccc(-c3ccc(CN4CCC(C(C)(C)O)CC4)cc3)cc2)cc1 [Example 39-3]
Akt
  AC50: 0.12 µM
FoxO3a
  AC50: 0.037 µM

## Cc1nc(C(N)=O)nn1-c1ccc(Cc2ccc(-c3ccc(CN4CCC(C)(C)C4)cc3)cc2)cc1 [Example 38-7]
Akt
  AC50: 0.031 µM
FoxO3a
  AC50: 0.015 µM

## Cc1cc(C(N)=O)nn1-c1ccc(Cc2ccc(-c3ccc(CNC4COC4)cc3)cc2)cc1 [Example 16-4]
Akt
  AC50: 0.12 µM
FoxO3a
  AC50: 0.041 µM

## Cc1cc(C(N)=O)nn1-c1ccc(Cc2ccc(-c3ccc(CN4CCNCC4)nc3)cc2)cc1 [Example 31-1, 5-methyl-1-(4-(4-(6-(piperazin-1-ylmethyl)pyridin-3-yl)benzyl)phenyl)-1H-pyrazole-3-carboxamide]
Akt
  AC50: 0.354 µM
FoxO3a
  AC50: 0.077 µM

## Cc1cc(C(N)=O)nn1-c1ccc(Cc2ccc(-c3ccc(CNC4CCC4)cc3)cc2)cc1 [Example 16-3]
Akt
  AC50: 0.804 µM
FoxO3a
  AC50: 0.5 µM

## Cc1cc(C(N)=O)nn1-c1ccc(Cc2ccc(-c3ccc(CN4CCC4)cc3)cc2)cc1 [Example 16-8]
Akt
  AC50: 0.3 µM
FoxO3a
  AC50: 0.117 µM

## Cc1cc(C(N)=O)nn1-c1ccc(C(C)(C)c2ccc(C3=CCC(N4CCOCC4)CC3)cc2)cc1 (stereo not shown) [Example 8, 5-methyl-1-(4-(2-(4′-morpholino-2′,3′,4′,5′-tetrahydro-[1,1′-biphenyl]-4-yl)propan-2-yl)phenyl)-1H-pyrazole-3-carboxamide]
Akt
  AC50: 0.377 µM
FoxO3a
  AC50: 0.096 µM

## Cc1cc(C(N)=O)nn1-c1ccc(Cc2ccc(-c3ccc(CN4CC(F)(F)C[C@@H]4CO)cc3)cc2)cc1 [Example 18, (R)-1-(4-((4′-((4,4-difluoro-2-(hydroxymethyl)pyrrolidin-1-yl)methyl)-[1,1′-biphenyl]-4-yl)methyl)phenyl)-5-methyl-1H-pyrazole-3-carboxamide]
Akt
  AC50: 0.394 µM
FoxO3a
  AC50: 0.095 µM

## Cc1nc(C(N)=O)nn1-c1ccc(C(C)(C)c2ccc(-c3ccsc3)cc2)cc1 [Example 13-16]
Akt
  AC50: 0.926 µM
FoxO3a
  AC50: 0.377 µM

## Cc1cc(C(N)=O)nn1-c1ccc(Cc2ccc(-c3ccnc(CN4CCNCC4)c3)cc2)cc1 [Example 31-2]
Akt
  AC50: 1.62 µM
FoxO3a
  AC50: 0.373 µM

## Cc1nc(C(N)=O)nn1-c1ccc(C(C)(C)c2ccc(Cl)cc2)cc1 [Example 1, 1-(4-(2-(4-chlorophenyl)propan-2-yl)phenyl)-5-methyl-1H-1,2,4-triazole-3-carboxamide]
Akt
  AC50: 1.55 µM
FoxO3a
  AC50: 0.576 µM

## Cc1nc(C(N)=O)nn1-c1ccc(Cc2ccc(-c3ccc(S(=O)(=O)NCC(C)(C)O)cn3)cc2)cc1 [Example 52, 1-(4-(4-(5-(N-(2-hydroxy-2-methylpropyl)sulfamoyl)pyridin-2-yl)benzyl)phenyl)-5-methyl-1H-1,2,4-triazole-3-carboxamide]
Akt
  AC50: 0.749 µM
FoxO3a
  AC50: 0.106 µM

— patent US10633350B2, “Diphenyl derivatives and uses thereof” (NOVARTIS AG, priority 2017, dated 2020)
